Experimental data taken from ChEMBL document CHEMBL1154382, “Preliminary SAR analysis of novel antiproliferative N(6),5'-bis-ureidoadenosine derivatives” (2009).

Legend:
Assay type in all cases: functional
MOLT-4 = test: Antiproliferative activity against human MOLT4 cells at 10 uM assessed as cell growth inhibition relative to control; details: values are per cent of control
PC-3 = test: Antiproliferative activity against human PC3 cells at 10 uM assessed as cell growth inhibition relative to control; details: values are per cent of control
HOP-62 = test: Antiproliferative activity against human HOP62 cells
NCI-H226 [1] = test: Antiproliferative activity against human NCI-H226 cells
NCI-H460 [2] = test: Antiproliferative activity against human NCI-H460 cells
NCI-H522 [3] = test: Antiproliferative activity against human NCI-H522 cells
HCC 2998 = test: Antiproliferative activity against human HCC2998 cells
LOX IMVI = test: Antiproliferative activity against human LOXIMVI cells
Malme-3M [4] = test: Antiproliferative activity against human MALME-3M cells
SK-MEL-2 = test: Antiproliferative activity against human SK-MEL-2 cells
UACC-257 [5] = test: Antiproliferative activity against human UACC257 cells
UACC-62 = test: Antiproliferative activity against human UACC62 cells
SF-539 [6] = test: Antiproliferative activity against human SF539 cells
SNB-19 [7] = test: Antiproliferative activity against human SNB19 cells
SNB-75 [8] = test: Antiproliferative activity against human SNB75 cells
U-251 = test: Antiproliferative activity against human U251 cells
IGROV-1 [9] = test: Antiproliferative activity against human IGROV1 cells
OVCAR-5 = test: Antiproliferative activity against human OVCAR5 cells
SK-OV-3 = test: Antiproliferative activity against human SKOV3 cells
A498 [10] = test: Antiproliferative activity against human A498 cells
SN12C [11] = test: Antiproliferative activity against human SN12C cells
UO-31 = test: Antiproliferative activity against human UO31 cells
[12] = Antiproliferative activity against human Hs 578T cells
MCF7 [13] = test: Antiproliferative activity against human MCF7 cells
NCI-H226 [14] = test: Antiproliferative activity against human NCI-H226 cells at 10 uM assessed as cell growth inhibition relative to control; details: values are per cent of control
NCI-H23 = test: Antiproliferative activity against human NCI-H23 cells at 10 uM assessed as cell growth inhibition relative to control; details: values are per cent of control
NCI-H460 [15] = test: Antiproliferative activity against human NCI-H460 cells at 10 uM assessed as cell growth inhibition relative to control; details: values are per cent of control
NCI-H522 [16] = test: Antiproliferative activity against human NCI-H522 cells at 10 uM assessed as cell growth inhibition relative to control; details: values are per cent of control
COLO 205 = test: Antiproliferative activity against human COLO205 cells at 10 uM assessed as cell growth inhibition relative to control; details: values are per cent of control
HCT-116 = test: Antiproliferative activity against human HCT116 cells at 10 uM assessed as cell growth inhibition relative to control; details: values are per cent of control
HCT-15 = test: Antiproliferative activity against human HCT15 cells at 10 uM assessed as cell growth inhibition relative to control; details: values are per cent of control
SW-620 = test: Antiproliferative activity against human SW620 cells at 10 uM assessed as cell growth inhibition relative to control; details: values are per cent of control
Malme-3M [17] = test: Antiproliferative activity against human MALME-3M cells at 10 uM assessed as cell growth inhibition relative to control; details: values are per cent of control
M14 = test: Antiproliferative activity against human M14 cells at 10 uM assessed as cell growth inhibition relative to control; details: values are per cent of control
SK-MEL-28 = test: Antiproliferative activity against human SK-MEL-28 cells at 10 uM assessed as cell growth inhibition relative to control; details: values are per cent of control
UACC-257 [18] = test: Antiproliferative activity against human UACC257 cells at 10 uM assessed as cell growth inhibition relative to control; details: values are per cent of control
SF-268 = test: Antiproliferative activity against human SF268 cells at 10 uM assessed as cell growth inhibition relative to control; details: values are per cent of control
SF-539 [19] = test: Antiproliferative activity against human SF539 cells at 10 uM assessed as cell growth inhibition relative to control; details: values are per cent of control
SNB-19 [20] = test: Antiproliferative activity against human SNB19 cells at 10 uM assessed as cell growth inhibition relative to control; details: values are per cent of control
SNB-75 [21] = test: Antiproliferative activity against human SNB75 cells at 10 uM assessed as cell growth inhibition relative to control; details: values are per cent of control
IGROV-1 [22] = test: Antiproliferative activity against human IGROV1 cells at 10 uM assessed as cell growth inhibition relative to control; details: values are per cent of control
OVCAR-4 = test: Antiproliferative activity against human OVCAR4 cells at 10 uM assessed as cell growth inhibition relative to control; details: values are per cent of control
786-0 = test: Antiproliferative activity against human 786-0 cells at 10 uM assessed as cell growth inhibition relative to control; details: values are per cent of control
A498 [23] = test: Antiproliferative activity against human A498 cells at 10 uM assessed as cell growth inhibition relative to control; details: values are per cent of control
RXF 393 = test: Antiproliferative activity against human RXF393 cells at 10 uM assessed as cell growth inhibition relative to control; details: values are per cent of control
SN12C [24] = test: Antiproliferative activity against human SN12C cells at 10 uM assessed as cell growth inhibition relative to control; details: values are per cent of control
TK-10 = test: Antiproliferative activity against human TK10 cells at 10 uM assessed as cell growth inhibition relative to control; details: values are per cent of control
MCF7 [25] = test: Antiproliferative activity against human MCF7 cells at 10 uM assessed as cell growth inhibition relative to control; details: values are per cent of control
MDA-MB-468 = test: Antiproliferative activity against human MDA-MB-468 cells at 10 uM assessed as cell growth inhibition relative to control; details: values are per cent of control
T47D = test: Antiproliferative activity against human T47D cells at 10 uM assessed as cell growth inhibition relative to control; details: values are per cent of control

`CCOC(=O)C[C@H]1[C@@H](O[Si](C)(C)C(C)(C)C)[C@H](n2cnc3c(NC(=O)Nc4ccccc4)ncnc32)O[C@@H]1COC(=O)NC` gave a growth, % of control at 10 µM (MOLT-4) of 34%, a growth, % of control at 10 µM (PC-3) of 32% and a GI50 (HOP-62) of 14.7 µM. For the same molecule, the GI50 (NCI-H226 [1]) was 11.8 µM, the GI50 (NCI-H460 [2]) was 4.45 µM and the GI50 (NCI-H522 [3]) was 9.58 µM. It also gave a GI50 (HCC 2998) of 8.76 µM, a GI50 (LOX IMVI) of 7.78 µM and a GI50 (Malme-3M [4]) of 3.34 µM. For the same molecule, the GI50 (SK-MEL-2) was 13.2 µM, the GI50 (UACC-257 [5]) was 20.8 µM and the GI50 (UACC-62) was 15.8 µM. The GI50 (SF-539 [6]) was 11.5 µM, the GI50 (SNB-19 [7]) was 49.2 µM and the GI50 (SNB-75 [8]) was 10.3 µM. For the same molecule, the GI50 (U-251) was 7.57 µM, the GI50 (IGROV-1 [9]) was 13.7 µM and the GI50 (OVCAR-5) was 12.8 µM. For the same molecule, the GI50 (SK-OV-3) was 40.4 µM, the GI50 (A498 [10]) was 4.65 µM and the GI50 (SN12C [11]) was 2.17 µM. For the same molecule, the GI50 (UO-31) was 5.7 µM, the GI50 [12] was 3.39 µM and the GI50 (MCF7 [13]) was 3.37 µM. For the same molecule, the growth, % of control at 10 µM (NCI-H226 [14]) was 56%, the growth, % of control at 10 µM (NCI-H23) was 88% and the growth, % of control at 10 µM (NCI-H460 [15]) was 13%. It also gave a growth, % of control at 10 µM (NCI-H522 [16]) of 45%, a growth, % of control at 10 µM (COLO 205) of 67% and a growth, % of control at 10 µM (HCT-116) of 17%. It also gave a growth, % of control at 10 µM (HCT-15) of 52%, a growth, % of control at 10 µM (SW-620) of 72% and a growth, % of control at 10 µM (Malme-3M [17]) of 54%. The growth, % of control at 10 µM (M14) was 57%, the growth, % of control at 10 µM (SK-MEL-28) was 72% and the growth, % of control at 10 µM (UACC-257 [18]) was 60%. It also gave a growth, % of control at 10 µM (SF-268) of 60%, a growth, % of control at 10 µM (SF-539 [19]) of 33% and a growth, % of control at 10 µM (SNB-19 [20]) of 99%. The growth, % of control at 10 µM (SNB-75 [21]) was 45%, the growth, % of control at 10 µM (IGROV-1 [22]) was 49% and the growth, % of control at 10 µM (OVCAR-4) was 42%. The growth, % of control at 10 µM (786-0) was 73%, the growth, % of control at 10 µM (A498 [23]) was 77% and the growth, % of control at 10 µM (RXF 393) was 35%. For the same molecule, the growth, % of control at 10 µM (SN12C [24]) was 35%, the growth, % of control at 10 µM (TK-10) was 88% and the growth, % of control at 10 µM (MCF7 [25]) was 12%. It also gave a growth, % of control at 10 µM (MDA-MB-468) of 62% and a growth, % of control at 10 µM (T47D) of 29%.
